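A five-concentration, 48-hour dose response in 96-well plates underlies each endpoint, interpolated linearly between surrounding concentrations. GI50: concentration for 50% inhibition of growth. At the TGI there is no net growth.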
Assays:
Assay in all cases: DTP human tumour cell line panel, 48 h
HT29 colon = tested on: HT29 colon
HOP-62 NSCLC = tested on: HOP-62 NSCLC
UACC-257 melanoma = tested on: UACC-257 melanoma
786-0 renal = tested on: 786-0 renal
RXF 393 renal = tested on: RXF 393 renal
NCI/ADR-RES ovarian = tested on: NCI/ADR-RES ovarian
M14 melanoma = tested on: M14 melanoma
SK-OV-3 ovarian = tested on: SK-OV-3 ovarian
NCI-H226 lung = tested on: NCI-H226 lung
NCI-H522 lung = tested on: NCI-H522 lung
OVCAR-8 ovarian = tested on: OVCAR-8 ovarian
HS 578T breast = tested on: HS 578T breast
OVCAR-4 ovarian = tested on: OVCAR-4 ovarian
SK-MEL-2 melanoma = tested on: SK-MEL-2 melanoma
IGROV1 ovarian = tested on: IGROV1 ovarian
A498 renal = tested on: A498 renal
UACC-62 melanoma = tested on: UACC-62 melanoma
SW-620 colon = tested on: SW-620 colon
LOX IMVI melanoma = tested on: LOX IMVI melanoma
CAKI-1 renal = tested on: CAKI-1 renal
MDA-MB-435 = tested on: MDA-MB-435
BT-549 breast = tested on: BT-549 breast
SF-268 CNS = tested on: SF-268 CNS
SR leukemia = tested on: SR leukemia
MALME-3M melanoma = tested on: MALME-3M melanoma
SK-MEL-5 melanoma = tested on: SK-MEL-5 melanoma
T-47D breast = tested on: T-47D breast
KM12 colon = tested on: KM12 colon
COLO 205 colon = tested on: COLO 205 colon
EKVX NSCLC = tested on: EKVX NSCLC
HCT-116 colon = tested on: HCT-116 colon
CCRF-CEM leukemia = tested on: CCRF-CEM leukemia
OVCAR-3 ovarian = tested on: OVCAR-3 ovarian
SF-295 CNS = tested on: SF-295 CNS
SN12C renal = tested on: SN12C renal
RPMI-8226 leukemia = tested on: RPMI-8226 leukemia
UO-31 renal = tested on: UO-31 renal
MOLT-4 leukemia = tested on: MOLT-4 leukemia
K-562 leukemia = tested on: K-562 leukemia
OVCAR-5 ovarian = tested on: OVCAR-5 ovarian
HL-60(TB) leukemia = tested on: HL-60(TB) leukemia
A549 NSCLC = tested on: A549 NSCLC
PC-3 prostate = tested on: PC-3 prostate
HOP-92 NSCLC = tested on: HOP-92 NSCLC
SF-539 CNS = tested on: SF-539 CNS
HCC-2998 colon = tested on: HCC-2998 colon
DU-145 prostate = tested on: DU-145 prostate
TK-10 renal = tested on: TK-10 renal
U251 CNS = tested on: U251 CNS
MCF7 breast = tested on: MCF7 breast
HCT-15 colon = tested on: HCT-15 colon
SNB-19 CNS = tested on: SNB-19 CNS
SNB-75 CNS = tested on: SNB-75 CNS
MDA-MB-231 breast = tested on: MDA-MB-231 breast
ACHN renal = tested on: ACHN renal
NCI-H460 lung = tested on: NCI-H460 lung
NCI-H23 lung = tested on: NCI-H23 lung

## CCCCCCCCn1ccc2cc(NC(=O)Cn3cc(CN4CCC(C)CC4)nn3)ccc21
HT29 colon
  GI50: 1730 nM
  TGI: 3.32 µM
HOP-62 NSCLC
  GI50: 1760 nM
  TGI: 3.4 µM
UACC-257 melanoma
  GI50: 1700 nM
  TGI: 3.35 µM
786-0 renal
  GI50: 1480 nM
  TGI: 2810 nM
RXF 393 renal
  GI50: 1500 nM
  TGI: 3.08 µM
NCI/ADR-RES ovarian
  GI50: 1920 nM
  TGI: 3.99 µM
M14 melanoma
  GI50: 1630 nM
  TGI: 3.08 µM
SK-OV-3 ovarian
  GI50: 1900 nM
  TGI: 3.7 µM
NCI-H226 lung
  GI50: 1750 nM
  TGI: 3.83 µM
NCI-H522 lung
  GI50: 1730 nM
  TGI: 3.48 µM
OVCAR-8 ovarian
  GI50: 1860 nM
  TGI: 3.81 µM
HS 578T breast
  GI50: 1600 nM
  TGI: 4.12 µM
OVCAR-4 ovarian
  GI50: 2070 nM
  TGI: 4.85 µM
SK-MEL-2 melanoma
  GI50: 1850 nM
  TGI: 3.53 µM
IGROV1 ovarian
  GI50: 1430 nM
  TGI: 2960 nM
A498 renal
  GI50: 1600 nM
  TGI: 3.27 µM
UACC-62 melanoma
  GI50: 1880 nM
  TGI: 3.37 µM
SW-620 colon
  GI50: 1770 nM
  TGI: 3.46 µM
LOX IMVI melanoma
  GI50: 1640 nM
  TGI: 3.05 µM
CAKI-1 renal
  GI50: 1670 nM
  TGI: 3.15 µM
MDA-MB-435
  GI50: 1650 nM
  TGI: 3.08 µM
BT-549 breast
  GI50: 1530 nM
  TGI: 3.01 µM
SF-268 CNS
  GI50: 1820 nM
  TGI: 3.53 µM
SR leukemia
  GI50: 1900 nM
  TGI: 5.24 µM
MALME-3M melanoma
  GI50: 1660 nM
  TGI: 3.12 µM
SK-MEL-5 melanoma
  GI50: 1720 nM
  TGI: 3.09 µM
T-47D breast
  GI50: 1760 nM
  TGI: 4.08 µM
KM12 colon
  GI50: 1810 nM
  TGI: 3.39 µM
COLO 205 colon
  GI50: 1820 nM
  TGI: 3.46 µM
EKVX NSCLC
  GI50: 1670 nM
  TGI: 3.66 µM
HCT-116 colon
  GI50: 1570 nM
  TGI: 2930 nM
CCRF-CEM leukemia
  GI50: 2500 nM
  TGI: 9.71 µM
OVCAR-3 ovarian
  GI50: 1710 nM
  TGI: 3.19 µM
SF-295 CNS
  GI50: 1860 nM
  TGI: 3.5 µM
SN12C renal
  GI50: 1680 nM
  TGI: 3.16 µM
RPMI-8226 leukemia
  GI50: 2060 nM
  TGI: 4.82 µM
UO-31 renal
  GI50: 1440 nM
  TGI: 2740 nM
MOLT-4 leukemia
  GI50: 2020 nM
  TGI: 5.55 µM
K-562 leukemia
  GI50: 1610 nM
  TGI: 3.51 µM
OVCAR-5 ovarian
  GI50: 1630 nM
  TGI: 3.42 µM
HL-60(TB) leukemia
  GI50: 1770 nM
  TGI: 3.58 µM
A549 NSCLC
  GI50: 1740 nM
  TGI: 3.4 µM
PC-3 prostate
  GI50: 1730 nM
  TGI: 3.68 µM
HOP-92 NSCLC
  GI50: 1160 nM
  TGI: 2570 nM
SF-539 CNS
  GI50: 1700 nM
  TGI: 3.08 µM
HCC-2998 colon
  GI50: 1740 nM
  TGI: 3.24 µM
DU-145 prostate
  GI50: 1940 nM
  TGI: 3.9 µM
TK-10 renal
  GI50: 1700 nM
  TGI: 3.21 µM
U251 CNS
  GI50: 1700 nM
  TGI: 3.15 µM
MCF7 breast
  GI50: 1650 nM
  TGI: 3.25 µM
HCT-15 colon
  GI50: 1610 nM
  TGI: 3.15 µM
SNB-19 CNS
  GI50: 1760 nM
  TGI: 3.42 µM
SNB-75 CNS
  GI50: 1480 nM
  TGI: 2820 nM
MDA-MB-231 breast
  GI50: 1710 nM
  TGI: 3.24 µM
ACHN renal
  GI50: 1630 nM
  TGI: 2990 nM
NCI-H460 lung
  GI50: 1700 nM
  TGI: 3.22 µM
NCI-H23 lung
  GI50: 2040 nM
  TGI: 4.34 µM

— PubChem BioAssay (NCI)
